According to ChEMBL document CHEMBL3988442, “University of Dundee, Small-Polar-MMV Screening Library” (2021):
“And” between values parts separate entries of the source, which are not always exact repeats. Identical values can stand only once.

What was measured:
Histidine--tRNA ligase = biological target: T1, Histidine--tRNA ligase (Leishmania infantum, UniProt A4I591); assay: Leishmania infantum Histidine tRNA synthetase (LdHisRS); format: functional
T1 sequence (A4I591 whole entry): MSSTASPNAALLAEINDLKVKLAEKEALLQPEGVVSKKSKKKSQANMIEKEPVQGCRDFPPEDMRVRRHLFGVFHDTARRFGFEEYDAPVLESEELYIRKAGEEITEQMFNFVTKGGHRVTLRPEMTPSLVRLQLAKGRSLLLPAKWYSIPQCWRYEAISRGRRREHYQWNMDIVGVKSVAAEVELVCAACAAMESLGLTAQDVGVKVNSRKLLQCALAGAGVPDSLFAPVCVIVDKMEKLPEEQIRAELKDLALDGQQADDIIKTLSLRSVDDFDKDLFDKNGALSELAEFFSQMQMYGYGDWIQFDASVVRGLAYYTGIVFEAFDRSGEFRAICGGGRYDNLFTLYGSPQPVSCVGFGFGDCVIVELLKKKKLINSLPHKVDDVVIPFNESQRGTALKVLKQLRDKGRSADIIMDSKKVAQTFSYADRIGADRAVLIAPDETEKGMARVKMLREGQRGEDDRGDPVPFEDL

Tryptophan--tRNA ligase = Tryptophan--tRNA ligase (Mycobacterium tuberculosis (strain ATCC 25618 / H37Rv), UniProt P9WFT3); assay: Biochemical assay for Mt-TrpRS; format: functional
Sequence of Tryptophan--tRNA ligase (P9WFT3 whole entry): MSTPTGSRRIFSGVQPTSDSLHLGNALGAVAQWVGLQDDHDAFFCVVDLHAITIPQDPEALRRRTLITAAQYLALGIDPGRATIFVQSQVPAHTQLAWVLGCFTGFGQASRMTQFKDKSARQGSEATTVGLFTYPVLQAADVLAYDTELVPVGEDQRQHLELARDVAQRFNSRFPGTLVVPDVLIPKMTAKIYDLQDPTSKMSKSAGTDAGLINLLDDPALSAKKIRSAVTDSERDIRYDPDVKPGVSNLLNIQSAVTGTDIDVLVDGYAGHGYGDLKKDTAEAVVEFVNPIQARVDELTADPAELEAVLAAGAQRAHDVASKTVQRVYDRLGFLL

Schistosoma mansoni = assay: High throughput screening of compounds against Schistosoma mansoni motility; format: functional; set-up: dose or concentration left out as unconfirmed
[1] = In vitro enzyme assay to detect hydrolysis of chlorophenol red-beta-D-[…] directly proportional to the number of Toxoplasma stably expressing beta-galactosidase; format: functional, organism-based, Toxoplasma gondii; details: Toxoplasma gondii

SMILES | IC50 (Histidine--tRNA ligase) | IC50 (Tryptophan--tRNA ligase) [µM] | Percent Effect (Schistosoma mansoni) [%] | IC50 [1] [µM]
CNc1[nH]nc(N)c1NC(=O)c1ccccc1 | 12.7 µM and 14.3 µM | – | – | –
O=C(c1cncc(N2CCC3(CCCNC3)C2)n1)N1CCCC1 (configuration not stated) | > 100 µM | – | – | –
NC(=O)C1CCCN(Cc2c(-c3ccco3)[nH]c3ncccc23)C1 (configuration not stated) | 67.8 µM and 46 µM | – | – | –
Cl.NC(=O)COc1ccc(CNCc2ccc(F)c(F)c2)cc1 | – | > 195 | 13.17 | –
Cc1csc(N2CCN(C(=O)CCC(=O)c3ccc(C)s3)CC2)n1 | > 100 µM | – | – | –
CC(NC(=O)c1coc(COc2cccc(F)c2)n1)c1nnc(N)s1 (configuration not stated) | 98.7 µM and 60.1 µM | – | – | –
Cc1nnc(N2CCc3cnc(C(C)C)nc3C2)c(C#N)c1C | > 100 µM | – | – | –
Cn1cc(NC(=O)Nc2cccc3cccnc23)ccc1=O | 2.58 µM and 4.22 µM | – | – | –
CS(=O)(=O)CCOCCNc1cncc(Br)c1 | > 100 µM | – | – | –
COc1ccc(-c2noc(CN3CCc4cncnc4C3)n2)cc1 | > 100 µM | – | – | –
Cc1ccccc1-c1noc(CN2CCc3nn(C)c(=O)cc3C2)n1 | 25.2 µM and 21.2 µM | – | – | –
O=C1CC(c2ccc(C(=O)O)cc2)c2ncn(-c3ccc(F)cc3)c2N1 (configuration not stated) | 15 µM and 21.9 µM | – | – | –
O=C(NCCCO)Nc1cccc(Cl)c1F | – | > 195 | 24.34 | –
O=C(Nc1ccc(=O)n(Cc2ccccc2Cl)c1)C1CC1 | 6.94 µM and 5.93 µM | – | – | –
COCc1ncc(-c2nccn2CCS(C)(=O)=O)cn1 | > 100 µM | – | – | –
CC(O)CN1CCN(C(=O)c2ccc(Cn3cccn3)cc2)CC1 (configuration not stated) | > 100 µM | – | – | –
CN(Cc1ccccc1CN1CCCC1)c1ncnc2[nH]ccc12 | 44.8 µM and 48.7 µM | – | – | –
Cc1cnn(CC(C)NCc2nc(-c3ccco3)no2)c1 (configuration not stated) | – | > 195 | -25.07 | –
O=C(CCN1CCCC1)N1CC[C@@H](c2ccc3ccccc3c2)[C@H](O)C1 | 63.5 µM and 54.7 µM | – | – | –
Cc1c(C(=O)N2CCC(O)(CN(C)C)C2)c2cc(O)ccc2n1C (configuration not stated) | > 100 µM | – | – | –
O=C1CC(c2ccc(C(=O)O)cc2)c2ncn(-c3ccc(Cl)cc3)c2N1 (configuration not stated) | 15.7 µM and 12.4 µM | – | – | –
Cn1nc2c(cc1=O)CN(CC(=O)Nc1nccs1)CC2 | > 100 µM | – | – | –

SMILES | IC50 (Histidine--tRNA ligase) | IC50 (Tryptophan--tRNA ligase) [µM] | Percent Effect (Schistosoma mansoni) [%] | IC50 [1] [µM]
CN1CCN(c2cccc(NC(=O)NCc3csc(N(C)C)n3)c2)C1=O | 38.9 µM and 48.5 µM | – | – | –
O=C(NCCO)Nc1cccc(Cl)c1SC(F)F | – | > 195 | -20.44 | –
Cc1cc(C)cc(OCCC(=O)NC2CC(=O)N(C)C2)c1 (configuration not stated) | > 100 µM | – | – | –
CCCn1nc2c(cc1=O)CN(Cc1cc(C)on1)CC2 | 80.7 µM and 80.3 µM | – | – | –
CC(c1ccco1)n1cc(-c2cc(CN3CCCC3)cs2)nn1 (configuration not stated) | 55.6 µM and 80.9 µM | – | – | –
Cc1nc(CN2CCCC2c2ccsc2)nc2ccccc12 (configuration not stated) | 56 µM and 44.1 µM | – | – | –
COc1ccccc1C1(CNCc2ccc(C#N)cc2)CCOCC1 | 50.4 µM and 50.9 µM | – | – | –
COc1cc(CCO)c(OC)c2c1OCO2 | > 100 µM | – | – | –
Cc1cc(O)ncc1NS(=O)(=O)c1cccc(F)c1F | 45.7 µM and 49.5 µM | – | – | –
CCS(=O)(=O)Nc1ccc2c(c1)C1(CCOCC1)CN2C | 13.4 µM and 11 µM | – | – | –
O=C(c1cc(-c2ccco2)nc2c(Cl)cccc12)N1C[C@H]2CNC[C@H]2C1 | 48.1 µM and 51.8 µM | – | – | –
Fc1ccc(N2CCC3(CC2)CC(OCc2cccnc2)CO3)cc1 (configuration not stated) | 23.3 µM and 15.8 µM | – | – | –
O=C(c1cnccn1)N1C[C@@H]2[C@@H](C1)OCC(=O)N2CC1CCCC1 | > 100 µM | – | – | –
c1ccc(-c2cnc(CNC3CCCN(c4cccnn4)C3)o2)cc1 (configuration not stated) | 43.5 µM and 30.5 µM | – | – | –
CN(CCCC#N)C1CCCN(Cc2noc(C3CC3)n2)C1 (configuration not stated) | – | > 195 | -67.8 | –
CN(C)CCn1c(=O)oc2ccc(NC(=O)C3CCCO3)cc21 (configuration not stated) | > 100 µM | – | – | –
O=c1c2ccccc2nc2n1C(CSc1ccc(Br)cc1)CN2 (configuration not stated) | > 100 µM | – | – | –
CS(=O)(=O)N1CCCC(Cc2ccnc3ccncc23)CC1 (configuration not stated) | 21.6 µM and 22.8 µM | – | – | –
Nc1nnc(SCC(=O)c2cc3c(cc2Cl)NC(=O)C3)s1 | > 100 µM and 77.9 µM | – | – | –
CC(C(=O)NCc1ccc(N2CCNC(=O)C2)cc1)n1cncn1 (configuration not stated) | 60.1 µM and 77.1 µM | – | – | –
O=C1CC(c2ccc(C(=O)O)cc2)c2ncn(-c3ccccc3)c2N1 (configuration not stated) | 17.3 µM and 20.1 µM | – | – | –
Cc1ccc(CNC(=O)Nc2cc(C(F)(F)F)c[nH]c2=O)cn1 | – | > 195 | -4.568 | –

SMILES | IC50 (Histidine--tRNA ligase) | IC50 (Tryptophan--tRNA ligase) [µM] | Percent Effect (Schistosoma mansoni) [%] | IC50 [1] [µM]
COc1cccc(CNCCc2cc(F)cc3c2OCOC3)c1 | – | > 195 | 75.77 | –
O=C(c1ccc[nH]1)N1CCN(CC2CCOc3ccccc3C2)CC1 (configuration not stated) | – | > 195 | -5.036 | –
Cn1ccnc1-c1cccc(NC(=O)NCCCO)c1 | – | > 195 | -1.514 | –
CCc1nnc2n1CCN(C(=O)c1ccc3[nH]cnc3c1)C2 | – | > 195 | 19.35 | –
OCCNc1nccc(-c2c[nH]nc2-c2ccco2)n1 | – | > 195 | – | > 50.1
COCCNc1nnc(-c2ccc(C)nc2)s1 | – | > 195 | – | > 50.1
N#Cc1cccc(SCCS(N)(=O)=O)c1 | – | > 195 | -35.02 | –
CC(Cn1cccn1)NC(=O)Nc1ccc(N(C)C)nc1 (configuration not stated) | – | > 195 | 0.4135 | –
CN(Cc1cnn(C)c1)C(=O)NC1CCC(O)CC1 (configuration not stated) | – | > 195 | 15.72 | –
Cc1cc(NC(=O)NCCc2cccs2)n(C)n1 | – | > 195 | 9.063 | –
O=C1CN(Cc2nnc(-c3ccc(Br)cc3)o2)CCN1 | – | > 195 | -48.54 | –
O=C1CC2(CCN(CC3CCOC3)CC2)CN1Cc1cc(F)cc(F)c1 (configuration not stated) | – | > 195 | -23.28 | –
O=C1CN(Cc2nnc(-c3ccccc3Br)o2)CCN1 | – | > 195 | 12.25 | –
CCc1cnc(CN(C(C)=O)C2CCN(CCS(C)(=O)=O)C2)o1 (configuration not stated) | – | > 195 | -22.31 | –
NC(=O)C1CCN(C(=O)CCn2ccc3cc(Br)ccc32)CC1 | – | > 195 | -11.99 | –
O=C(CCc1ccsc1)NCC1CCN(c2ccccc2)C1 (configuration not stated) | – | > 195 | 6.73 | –
O=C(CCc1cc(O)no1)N1CCCC(COc2ccc(F)cc2)C1 (configuration not stated) | – | > 195 | 28.51 | –
Cc1ccc(CC(=O)N2CCOC(c3nc(C)n[nH]3)C2)cn1 (configuration not stated) | – | > 195 | 13.87 | –
CC(=O)N1CCN(CC2CCOc3ccccc3C2)CC1 (configuration not stated) | – | > 195 | -45.54 | –
CN(Cc1cnn(C)c1)C(=O)NC1CCS(=O)(=O)C1 (configuration not stated) | – | > 195 | -4.908 | –
Cc1ccc(NC(=O)Cn2cc(I)cn2)cc1 | – | > 195 | -1.868 | –
